Results taken from patent publication US20040247700A1 (priority 2001, published 2004).
Where “and” joins values, the source holds several entries; their conditions need not be identical. Equal values may be shown once. Read-outs that look alike come from different tables or passages of the source.

Columns and labels:
COX-1 enzyme (ovine) = target: T1, COX-1 enzyme (ovine) (Ovis aries, UniProt P05979); assay: COX-1 enzyme inhibition (COX-1 synthesis of PGE2); type: biochemical
T1 construct: purchased Cayman Chemical $60100
T1 sequence (P05979 25-600): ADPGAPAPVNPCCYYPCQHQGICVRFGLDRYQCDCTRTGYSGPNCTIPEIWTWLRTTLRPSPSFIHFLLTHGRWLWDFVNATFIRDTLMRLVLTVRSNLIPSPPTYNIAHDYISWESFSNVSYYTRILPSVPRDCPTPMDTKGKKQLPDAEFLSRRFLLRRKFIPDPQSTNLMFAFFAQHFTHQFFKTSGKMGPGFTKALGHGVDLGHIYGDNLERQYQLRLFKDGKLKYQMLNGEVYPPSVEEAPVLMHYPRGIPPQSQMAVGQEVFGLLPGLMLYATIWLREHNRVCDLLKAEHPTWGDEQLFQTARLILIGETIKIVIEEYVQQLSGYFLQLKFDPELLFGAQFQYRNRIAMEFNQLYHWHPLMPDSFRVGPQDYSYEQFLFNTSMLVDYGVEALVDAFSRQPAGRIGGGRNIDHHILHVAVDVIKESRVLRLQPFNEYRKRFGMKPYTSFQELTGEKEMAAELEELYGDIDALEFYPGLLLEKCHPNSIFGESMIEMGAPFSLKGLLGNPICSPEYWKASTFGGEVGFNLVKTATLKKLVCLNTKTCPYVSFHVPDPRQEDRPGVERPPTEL
Procedure: General Prodecure—Oxygen-free 1.0M Tris-HCl buffer (pH 8.0) was prepared as follows: In a 1000 mL beaker, 12.11 g Trizma HCl was dissolved into 900 mL ultra-pure water. The beaker was placed on a stir plate with a stir bar. NaOH was added until the pH reached 8.0. The volume was adjusted to a final volume of 100 mL and stored in a 1000 mL storage bottle.
The Tris-HCl buffer was placed into a vacuum chamber with the top loosened and the air pump was turned on until the buffer stopped bubbling. The vacuum chamber was then turned off and the storage bottle was tightly covered. This steps was repeated each time when oxygen-free Tris-HCl buffer was used.
One mL cofactor solution was prepared by adding 1.3 mg (−) epinephrine, 0.3 mg reduced glutathione and 1.3 mg hematin to 1 mL oxygen free Tris-HCl buffer. The solutions of the test material were prepared as needed, i.e., 10 mg of aspirin was weighed and dissolved into 1 mL DMOS. Enzymes, i.e., prostaglandin E2 or prostaglandin F2alpha, were dissolved in oxygen free Tris-HCl buffer as follows, i.e., on ice, 6.5 μL of enzyme at 40,000 units/mL was taken and added to 643.5 μL of oxygen free Tris-HCl buffer. This enzyme solution is enough for 60 reactions. The COX-1 enzyme solution was prepared as follows: In a 15 mL centrifuge tube, 10 μL centrifuge tube, 10 μL COX-1 enzyme at 40,000 units/mL was added to oxygen free Tris-HCl with 50 μL of the cofactor solution per reaction. The mixture was incubated on ice for five minutes (i.e., for 60 reactions add 65 μL enzyme in oxygen free Tris-HCl buffer with 3.25 mL cofactor solution.
Sixty microliters of the enzyme solution were combined with 20 mL of the test solution in each well of a 96 well plate. […] The plates were preincubated on ice for 10 minutes. Twenty μL arachidonic acid (30 μM) was added and incubated for 15 minutes at 37° C.
The reaction was terminated by adding 10 μL 2 M HCl. The final solution was used as the supernatant for the PGE2 assay.
General Procedure—EIA Buffer was prepared by diluting the contents of the EIA Buffer Concentrate (vial #4) with 90 ml of Ultra-pure water. […]

COX-2 over COX-1 = details: reported, background; cited from earlier work
COX-2 = target: T2, COX-2 (Mus musculus, UniProt Q05769); assay: cell-based
T2 construct: LPS, which was used to induce the expression of COX-2 in the RAW 264.7 cells; host or cells: RAW 264.7 (murine), LPS-stimulated
T2 sequence (Q05769 18-604): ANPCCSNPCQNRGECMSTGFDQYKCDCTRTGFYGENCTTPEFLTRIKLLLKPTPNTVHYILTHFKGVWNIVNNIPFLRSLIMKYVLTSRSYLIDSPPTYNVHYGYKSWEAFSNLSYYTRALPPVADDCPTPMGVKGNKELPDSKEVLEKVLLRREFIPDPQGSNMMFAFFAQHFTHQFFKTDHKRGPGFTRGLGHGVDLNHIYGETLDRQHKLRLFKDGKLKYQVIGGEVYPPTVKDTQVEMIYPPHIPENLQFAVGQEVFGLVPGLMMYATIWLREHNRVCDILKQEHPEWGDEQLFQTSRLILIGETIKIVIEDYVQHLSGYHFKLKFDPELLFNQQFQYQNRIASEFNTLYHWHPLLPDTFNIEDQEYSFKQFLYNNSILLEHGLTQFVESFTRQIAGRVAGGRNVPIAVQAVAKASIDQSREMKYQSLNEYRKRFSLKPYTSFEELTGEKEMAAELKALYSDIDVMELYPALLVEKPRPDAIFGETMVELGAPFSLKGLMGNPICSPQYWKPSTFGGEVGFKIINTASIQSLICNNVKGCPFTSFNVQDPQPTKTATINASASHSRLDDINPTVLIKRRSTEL
Procedure: The DMEM growth medium was made as follows 50 mL of heat inactivated FBS and 5 mL of penicillin/streptomycin were added to a 500 mL bottle of DMEM and stored at 4° C. This was warmed to 37° C. in a water bath before use and for best results should be used within three months.
On day one of the experiment, the log phase 264.7 cells were plated at 8×10^4 cells per well in 0.2 mL growth medium per well in a 96-well tissue culture plate. After 6 to 8 hours post plating, 100 μL fresh medium. […] It was mixed until dissolved and stored at 4° C. Immediately before use, it was thawed at room temperature or in a 37° C. water bath. A new solution was prepared every 60 days.
On day two of the experiment, the test materials were prepared as 1000× stock in DMSO. For example, if the final concentration of the test material was to be 10 μg/mL, a 10 mg/mL stock was prepared by dissolving 10 mg of the test material in 1 mL of DMSO. Fresh test materials were prepared on day 2 of the experiment. In 1.7 mL microfuge tubes, 1 mL DMEM without FBS was added to obtain test concentrations of 0.05, 0.10, 0.5, and 1.0 μg/mL. 2 μL of the 1000×DMSO stock of the test material was added to the 1 mL of medium without FBS. The tube contained the final concentration of the test material was concentrated 2-fold. The tube was placed in incubator for 10 minutes to equilibrate.
One-hundred mL of medium was removed from each well of the cell plates prepared on day one. One-hundred mL of equilibrated 2× final concentration the test compounds were added to cells and incubated for 90 minutes. LPS in DMEM without FBS was prepared by adding 44 μL of the 1 mg/mL DMSO to 10 mL of medium. For each well of cells to be stimulated, 20 μL of LPS (final concentration of LPS is 0.4 μg/mL of LPS) was added.
Determination of PGE2 Concentration in Medium
Equipment—freezer, 30° C.
General Procedure—EIA Buffer was prepared by diluting the contents of the EIA Buffer Concentrate (vial #4) with 90 ml of Ultra-pure water. Vial #4 was rinsed several times to ensure all crystals had been removed and was then placed into a 100 mL storage bottle and stored at 4° C.
The Wash Buffer was prepared by diluting Wash Buffer Concentrate (vial #5) 1:400 with Ultra-pure water. 0.5 ml/liter of Tween 20 (vial #5a) was then added (using a syringe for accurate measurement). For one liter Wash Buffer add 2.5 ml Wash Buffer Concentrate, 0.5 ml Tween-20, and 997 ml Ultra-pure water. The solution was stored in a 1 liter storage bottle at 4° C.
The Prostaglandin E2 standard was reconstituted as follows. A200 μL pipet tip was equilibrated by repeatedly filling and expelling the tip several times in ethanol. The tip was used to transfer 100 μL of the PGE2 Standard (vial #3) into a 1.7 mL microfuge tube. 900 μL Ultra-pure water was added to the tube and stored at 4° C., which was stable for ˜6 weeks. The Prostaglandin E2 acetylcholinesterase tracer was reconstituted as follows. 100 μL PGE2 tracer (vial #2) was mixed with 30 mL of the EIA Buffer in a 50 mL centrifuge tube and stored at 4° C.
The Prostaglandin E2 monoclonal antibody was reconstituted as follows. 100 μL PGE2 Antibody (vial #1) was mixed with 30 mL of the EIA buffer in a 50 mL centrifuge tube and stored at 4° C.
DMEM with penicillin/streptomycin was prepared by adding 5 mL penicillin/streptomycin into 5 mL DMEM and stored at 4° C.
The plates were set up as follows: Each plate contained a minimum of two blanks (B), two non-specific binding wells (NSB), two maximum binding wells (B0), and an eight point standard curve run in duplicate (S1-S8).

[1] = RAW 264.7 cell model, read-out: COX-2 IC50 (converted)
[2] = second component alone, PGE2 production by COX-2, RAW 264.7 cells, 24 h LPS, read-out: Second Component IC50 (converted)

For `COc1cc(/C=C/C(=O)CC(=O)/C=C/c2ccc(O)c(OC)c2)ccc1O` [Curcumin], the IC50 (COX-1 enzyme (ovine); COX-1 IC50, ovine COX-1 enzyme) was 34.2 µM.

In the case of `CC(=O)Oc1ccccc1C(=O)O` [aspirin], the COX-2 specificity (COX-2 over COX-1) is listed as 0.6.

Work on `C[C@H]1[C@H](C)CC[C@]2(C(=O)O)CC[C@]3(C)C(=CC[C@@H]4[C@@]5(C)CC[C@H](O)C(C)(C)[C@@H]5CC[C@]43C)[C@H]12` [Ursolic Acid, Ursolic acid] yielded an IC50 (COX-2; [1]) of 130 µM and an IC50 (COX-2; [2]) of 171 µM.

For `C=C1CC[C@@H]2[C@](C)(CO)[C@H](O)CC[C@@]2(C)[C@@H]1C/C=C1/C(=O)OC[C@H]1O` [Andrographolide], the IC50 (COX-2; [1]) was 819 µM, the “SPECIFICITY COX-1/COX-2” value (COX-2; ratio COX-1 IC50 / COX-2 IC50) was 5.2 and the IC50 (COX-2; [2]) was 591 µM. For the same compound, the IC50 (COX-1 enzyme (ovine); ovine COX-1 enzyme, read-out: COX-1 IC50 (converted)) was ~4280 µM and 4280 µM.
